From patent US20250002465A1, “TRIMERIC COPPER CATALYSTS, INTERMEDIATES FOR MAKING SUCH CATALYSTS AND METHOD FOR PREPARING A CYCLOADDITION COMPOUND” (University of Kentucky Research Foundation, priority 2023, published 2025) come the findings set out here.

For one series, the system named is MDA-MB-468. In words: Cytotoxicity, MTT assay. The note with it: read-out: IC50 (cytotoxicity), MDA-MB-468 cells, 72 hours.
A short description of series [1]: Catalytic CuAAC reaction in water (phenylacetylene, benzyl azide), conversion by GC.
A short description of series [2]: Cyclic voltammetry, oxidation potential. The format is physicochemical.
In a further series the test system is SUM-159. In words: Cytotoxicity, MTT assay. The format is cell-based. The note with it: SUM-159 cells, 72 hours. As for the experimental part: FIG. 5 is a-b) Effect of 6 and 7 on cell viability in TNBC cells treated with the complexes for 72 hours. Mean±s.e.m. n=3. c) Structure of AuDTC-alkyne used for click experiment.
We first evaluated the cytotoxicity of the complexes (6 and 7) in triple-negative breast cancer cells, MDA-MB-468 and SUM-159 using MTT assay.

Series [3] is described as follows: Stability of the complex to air, moisture and H2O2 (colour, EPR, UV-visible spectroscopy). It is filed as physicochemical. Conditions: for Colour change in the presence of air or moisture: over the course of weeks, solid or solution. As for the experimental part:
FIG. 2 illustrates Left: UV-vis absorbance spectra of 3+(CH3CN)4CuPF6 in H2O after 18 hours with 5 molar equivalents of H2O2. Right: UV-vis absorbance spectra after addition of N-methylimidazole to 3+(CH3CN)4CuPF6+5 molar equivalents of H2O2 in H2O after 18 hours incubation.
One of the most important aspects of catalysts for the biologically compatible CuAAC reaction is the ability to perform the reaction while not forming any ROS. Most Cu (I) complexes can be rapidly oxidized by oxygen to Cu (II) and form O2—, one of the first ROS that can then go on to react in myriad ways. […] To further verify this, we performed EPR measurements on solutions of 6 in the absence and presence of H2O2.
We then tested the chemical oxidation of solutions of 7 by UV-visible spectroscopy […]. Increasing amounts of H2O2 were added and the absorption spectrum was measured (FIG. 2).
Without the addition of oxidant, an absorption peak at 280 nm is the lowest energy feature in the spectrum. Aqueous solutions of Cu^2+ ions absorb visible light, typically due to low energy d-d transitions. Therefore, if Cu^2+ was formed, we would expect to observe the appearance of a new absorption in the visible region.

Another series has as its system MDA-MB-468 cells. Briefly: Intracellular Cu(I)-catalyzed click chemistry and mitochondria colocalization, confocal microscopy. It is filed as cell-based. Conditions: 100 μM catalyst, no THPTA or ascorbate.
The mark [4] stands for this setting: catalyst concentration 20 mM, room temperature, 4 hr, average of two runs.
Setting [5] is: CH2Cl2, glassy carbon working electrode.

For `OCCCn1cc(CN(Cc2cn(CCCO)nn2)Cc2cn(CCCO)nn2)nn1.[Cu]` [THPTA, Cu tris-(hydroxypropyltriazolyl)-methylamine, reference compound], the IC50 in the series with MDA-MB-468 was 22.4 µM.
Regarding `COCCOCCn1c2ccccc2nc1[C@H]1C[C@@H](c2nc3ccccc3n2CCOCCOC)C[C@@H](c2nc3ccccc3n2CCOCCOC)C1` [compound 3, Cis,cis-1,3,5-cyclohexanetribenzimidazole-1-(2-(2-methoxyethoxy)ethyl)-2-yl], the Conversion entry in series [1] (setting [4]) is given as “nearly quantitative”. Moreover, the Oxidation wave entry in series [2] (setting [5]) is given as “irreversible oxidation near the same potential”.
For `CCCCn1c2ccccc2nc1[C@H]1C[C@@H](c2nc3ccccc3n2CCCC)C[C@@H](c2nc3ccccc3n2CCCC)C1` [compound 2, Cis,cis-1,3,5-cyclohexanetribenzimidazole-1-butyl-2-yl], the Conversion result in series [1] (setting [4]) is “nearly quantitative”.
On to “(Cis,cis-1,3,5-cyclohexanetribenzimidazole-1-butyl-2-yl)2(Cu(I)PF6)3 [compound 6]”, for which, in series [1] (setting [4]), the Conversion came out at 98%. The IC50 in the series on MDA-MB-468 is 46.7 µM; in the series with SUM-159, 84.1 µM. In addition, the “Colour change in the presence of air or moisture” value in series [3] is on record as “did not change color”. The “EPR active species (Cu2+) after H2O2 addition” value in series [3] (solution, EPR) is “no EPR active species”.
`c1ccc2[nH]c([C@H]3C[C@@H](c4nc5ccccc5[nH]4)C[C@@H](c4nc5ccccc5[nH]4)C3)nc2c1` [compound 1, Cis,cis-1,3,5-cyclohexanetribenzimidazole-2-yl] had a Conversion in series [1] (setting [4]) of roughly 18%.
“(Cis,cis-1,3,5-cyclohexanetribenzimidazole-1-(2-(2-methoxyethoxy)ethyl)-2-yl)2(Cu(I)PF6)3 [compound 7]”: the Conversion is reported as 75% in series [1] (50 mM loading, water, 35° C., 1 hour); 33% in series [1] (catalyst concentration 0.5 μM, water, 35° C., 18 hr); 6% in series [1] (catalyst concentration 0.5 μM, water, ambient conditions, 18 hours); 64% in series [1] (catalyst concentration 1.0 μM, water, 35° C., 18 hr); 8% in series [1] (catalyst concentration 1 μM, water, ambient conditions, 18 hours); roughly 88% in series [1] (catalyst concentration 5 μM, water, 35° C., 18 hr). Further, the Conversion in series [1] (catalyst concentration 5 μM, water, ambient conditions, 18 hours) was roughly 13%; in series [1] (catalyst concentration 10 μM, water, 35° C., 18 hr), “quantitative”; in series [1] (catalyst concentration 10 μM, water, ambient conditions, 18 hours), roughly 13%; in series [1] (catalyst concentration 50 μM, water, ambient conditions, 18 hours), roughly 36%. Also, the values for the IC50 with MDA-MB-468 and in the series on SUM-159 were 78.6 µM and greater than 100 µM, respectively. The “Change of UV-visible absorption spectrum with N-methylimidazole and H2O2” value in series [3] (in-situ formed 7, five equivalents of H2O2 plus N-methylimidazole) is listed as “no change in the absorption spectrum”. For the same compound, the “Colour change in the presence of air or moisture” value in series [3] is recorded as “did not change color”. In addition, the “Change of UV-visible absorption spectrum with H2O2” value in series [3] (up to five molar equivalents of peroxide, 18 hours, room temperature) was “no appreciable change in the absorption spectrum”. In addition, the Oxidation wave entry in series [2] (0.1 M LiClO4 in H2O, Hg/Hg2SO4 reference) is “did not observe an oxidation wave”; in series [2] (setting [5]) it was 1.85 V vs SCE. Also, the “Irreversible reduction wave (Cu+/Cu0)” value in series [2] (CH2Cl2) is given as roughly 0 V vs. SCE. Further, the “Click reaction between AuDTC-alkyne and azide fluorescein in cells” value with MDA-MB-468 cells is on record as “effectively catalyzed”.
